A short description of series [1]: Shuttlebox (conditioned avoidance behaviour in the rat), % inhibition of crossing rate. It is filed as in vivo. The protocol: (§1) 1-(3,4,5-Trichlorophenyl)piperazine hydrochloride [compound A] was tested in various conventional screens used for determining the effect of major tranquillizors. In these tests chlopromazine was used as a positive control. The results obtained were as follows:
(§2) The activity of Compound A in the anti-catapresan induced fighting test and the inhibition of conditioned avoidance responses in the shuttlebox tests indicate that Compound A has potential neuroleptic/anxiolytic activity in man.

Series [2] in a line: Activity in man extrapolated from potency relative to chlorpromazine in animal tests. The following applies: orally, inferred from potency relative to chlorpromazine in animal tests.
From the text: as §2

The nature of series [3]: Anti-Catapresan test (anti-catapresan induced fighting test). It is filed as in vivo. The following applies: po; mouse. The protocol:
as §1, §2

Series [4] in a line: Induction of catalepsy in the rat. The class given is in vivo. As to the method: as §1
catalepsy in 0% at 54% at
the rat. 40 mg/kg s.c. 10 mg/kg i.p.
as §2

The ED50 is the dose at which the effect has come halfway, by size or by number of responders. High values mean a need for a large dose, low ones an effect at a small dose. In the case of `Cl.Clc1cc(N2CCNCC2)cc(Cl)c1Cl` [Compound A, 1-(3,4,5-Trichlorophenyl)piperazine hydrochloride], the “% inhibition of crossing rate, Shuttlebox” value in series [1] (5 mg/kg p.o.) is -73%. Also, the “daily doses at which active in man” value in series [2] is 0.2 to 10 mg/kg. The same compound gave an ED50 in series [3] of 6 mg/kg. In addition, the cataleptic activity result in series [4] was “lack of cataleptic activity”. Moreover, in series [4] (40 mg/kg s.c.), the Induction of catalepsy was 0%.

Regarding `CN(C)CCCN1c2ccccc2Sc2ccc(Cl)cc21` [Chlorpromazine, chlorpromazine, reference compound], in series [1] (10 mg/kg p.o.), the “% inhibition of crossing rate, Shuttlebox” value is listed as -67%. For the same compound, in series [3], the 50% effect level (ED50) was put at a dose of 2.8 mg/kg. This compound registered an Induction of catalepsy in series [4] (10 mg/kg i.p.) of 54%.

The values are drawn from US4139621A, “N-(4-substituted-3,5-dichloro-phenyl)-piperazines” (Beecham Group Limited, priority 1976, dated 1979).
